Reference: ChEMBL document CHEMBL3808387, “Discovery of IWP-051, a Novel Orally Bioavailable sGC Stimulator with Once-Daily Dosing Potential in Humans” (ACS Med Chem Lett, 2016)

What was measured:
[1] = molecular target: Soluble guanylate cyclase (Homo sapiens, UniProt O75343+P33402+Q02108+Q02153); assay: Activation of SGC in HEK293 cells assessed as cGMP production after 20 mins by LC-MS/MS analysis in presence of NO-donor DETA-NONOate; type: cell-based
[2] = Intrinsic clearance in human liver microsomes assessed per mg of protein at 2 uM after 10 to 30 mins by LC/MS/MS analysis in presence of NADPH; type: ADME; settings: read-out: CLH
[3] = Intrinsic clearance in Sprague-Dawley rat liver microsomes assessed per mg of protein at 2 uM after 10 to 30 mins by LC/MS/MS analysis in presence of NADPH; type: ADME; settings: read-out: CLH
[4] = molecular target: Soluble guanylate cyclase (Homo sapiens) (UniProt Q02153+O75343+P33402+Q02108); assay: Activation of SGC in HEK293 cells assessed as cGMP production at 30 uM after 20 mins by LC-MS/MS analysis in presence of NO-donor DETA-NONOate; type: cell-based

Soluble guanylate cyclase, sequence (Q02153 whole entry): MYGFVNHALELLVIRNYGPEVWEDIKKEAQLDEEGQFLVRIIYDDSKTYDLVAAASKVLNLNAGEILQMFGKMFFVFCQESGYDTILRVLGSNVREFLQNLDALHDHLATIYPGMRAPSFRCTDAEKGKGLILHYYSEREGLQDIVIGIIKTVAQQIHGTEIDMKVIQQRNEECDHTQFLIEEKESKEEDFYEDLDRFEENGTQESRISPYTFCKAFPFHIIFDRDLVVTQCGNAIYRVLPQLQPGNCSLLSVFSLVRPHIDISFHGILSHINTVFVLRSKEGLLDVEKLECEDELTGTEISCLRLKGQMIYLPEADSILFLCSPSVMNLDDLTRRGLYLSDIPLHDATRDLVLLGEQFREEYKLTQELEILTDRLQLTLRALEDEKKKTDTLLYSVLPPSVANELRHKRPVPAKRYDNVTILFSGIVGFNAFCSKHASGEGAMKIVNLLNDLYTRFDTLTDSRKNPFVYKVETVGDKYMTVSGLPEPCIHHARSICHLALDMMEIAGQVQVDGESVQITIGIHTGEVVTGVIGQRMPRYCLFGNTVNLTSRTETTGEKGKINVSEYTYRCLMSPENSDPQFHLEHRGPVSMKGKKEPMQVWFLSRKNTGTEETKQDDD
Soluble guanylate cyclase, sequence (O75343 whole entry): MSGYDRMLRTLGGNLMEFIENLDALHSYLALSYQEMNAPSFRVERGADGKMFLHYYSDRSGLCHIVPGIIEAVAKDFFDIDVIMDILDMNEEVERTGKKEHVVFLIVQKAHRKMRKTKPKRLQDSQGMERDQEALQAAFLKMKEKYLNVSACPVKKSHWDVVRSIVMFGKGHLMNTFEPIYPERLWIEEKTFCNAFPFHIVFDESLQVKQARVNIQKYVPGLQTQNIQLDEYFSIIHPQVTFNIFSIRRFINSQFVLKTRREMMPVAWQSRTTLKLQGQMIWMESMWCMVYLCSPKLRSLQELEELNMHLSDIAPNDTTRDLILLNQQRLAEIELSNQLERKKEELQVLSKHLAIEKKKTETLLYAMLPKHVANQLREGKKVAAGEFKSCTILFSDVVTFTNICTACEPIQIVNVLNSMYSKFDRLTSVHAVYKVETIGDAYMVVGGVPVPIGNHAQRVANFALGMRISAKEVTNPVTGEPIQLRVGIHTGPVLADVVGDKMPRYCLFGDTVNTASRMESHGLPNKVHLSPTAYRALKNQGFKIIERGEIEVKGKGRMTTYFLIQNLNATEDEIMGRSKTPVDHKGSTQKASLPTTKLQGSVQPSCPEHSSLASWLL
Soluble guanylate cyclase, sequence (P33402 whole entry): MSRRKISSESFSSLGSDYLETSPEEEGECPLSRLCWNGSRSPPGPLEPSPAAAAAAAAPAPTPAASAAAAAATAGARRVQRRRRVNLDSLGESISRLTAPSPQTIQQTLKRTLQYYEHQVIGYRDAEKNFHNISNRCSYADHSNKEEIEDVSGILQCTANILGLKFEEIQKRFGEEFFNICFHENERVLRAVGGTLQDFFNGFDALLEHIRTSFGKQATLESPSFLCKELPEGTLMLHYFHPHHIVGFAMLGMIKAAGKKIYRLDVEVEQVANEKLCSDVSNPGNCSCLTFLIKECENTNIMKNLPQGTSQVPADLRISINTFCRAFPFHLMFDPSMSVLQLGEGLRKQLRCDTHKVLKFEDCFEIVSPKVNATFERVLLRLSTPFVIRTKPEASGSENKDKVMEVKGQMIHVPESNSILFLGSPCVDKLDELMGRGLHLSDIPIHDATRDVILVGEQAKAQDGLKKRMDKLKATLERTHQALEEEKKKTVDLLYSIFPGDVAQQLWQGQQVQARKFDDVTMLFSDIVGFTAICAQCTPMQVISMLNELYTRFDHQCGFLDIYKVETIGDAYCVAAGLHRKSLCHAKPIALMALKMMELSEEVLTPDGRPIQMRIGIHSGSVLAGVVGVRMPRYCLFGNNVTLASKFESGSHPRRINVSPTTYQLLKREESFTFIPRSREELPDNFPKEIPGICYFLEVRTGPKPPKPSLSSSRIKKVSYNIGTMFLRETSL
Soluble guanylate cyclase, sequence (Q02108 whole entry): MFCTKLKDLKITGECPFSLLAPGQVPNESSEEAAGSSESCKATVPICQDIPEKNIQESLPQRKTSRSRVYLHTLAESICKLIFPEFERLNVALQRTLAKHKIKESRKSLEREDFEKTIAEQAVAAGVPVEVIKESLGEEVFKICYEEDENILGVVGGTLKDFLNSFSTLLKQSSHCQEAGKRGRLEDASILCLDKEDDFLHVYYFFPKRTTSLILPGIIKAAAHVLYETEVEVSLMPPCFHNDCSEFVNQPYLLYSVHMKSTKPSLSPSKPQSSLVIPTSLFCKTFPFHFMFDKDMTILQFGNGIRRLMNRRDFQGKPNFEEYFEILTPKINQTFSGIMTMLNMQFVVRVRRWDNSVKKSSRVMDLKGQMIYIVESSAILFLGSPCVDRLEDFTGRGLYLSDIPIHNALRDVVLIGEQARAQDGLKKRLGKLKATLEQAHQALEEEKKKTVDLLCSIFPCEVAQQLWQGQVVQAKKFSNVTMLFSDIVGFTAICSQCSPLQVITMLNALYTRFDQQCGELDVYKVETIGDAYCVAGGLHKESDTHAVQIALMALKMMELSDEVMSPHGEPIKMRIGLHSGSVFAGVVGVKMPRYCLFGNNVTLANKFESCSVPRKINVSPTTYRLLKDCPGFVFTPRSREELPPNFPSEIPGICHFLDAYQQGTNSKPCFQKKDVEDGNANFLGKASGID

SMILES	EC50 [1]	microsomal CLint at 2 µM [2]	microsomal CLint at 2 µM [3]	Emax [4]
N#Cc1cnc(-c2cc(-c3ccon3)n(Cc3ccccc3F)n2)nc1O	0.5 µM	8 µL/min/mg	14 µL/min/mg	
COc1nc(-c2cc(-c3ccon3)n(Cc3ccccc3F)n2)ncc1F		20 µL/min/mg		
CS(=O)(=O)c1cnc(-c2cc(-c3ccon3)n(Cc3ccccc3F)n2)nc1O	0.9 µM	15 µL/min/mg	13 µL/min/mg	
N#Cc1cc(-c2ncc(F)c(=O)[nH]2)nn1Cc1ccccc1F		7 µL/min/mg	9 µL/min/mg	
Oc1nc(-c2cc(-c3ncco3)n(Cc3ccccc3F)n2)ncc1F	1.5 µM	42 µL/min/mg	68 µL/min/mg	
O=c1[nH]c(-c2cc(-c3ccsn3)n(Cc3ccccc3F)n2)ncc1F	0.18 µM	169 µL/min/mg	129 µL/min/mg	
Oc1nc(-c2cc(-c3ccon3)n(Cc3ccccc3)n2)ncc1F	0.88 µM	11 µL/min/mg	10 µL/min/mg	
O=C(Nc1cnc(-c2cc(-c3ccon3)n(Cc3ccccc3F)n2)nc1O)c1ccccc1		14 µL/min/mg	26 µL/min/mg	53%
O=c1[nH]c(-c2cc(-c3ccon3)n(Cc3cccc(Cl)c3F)n2)ncc1F	0.38 µM	5 µL/min/mg	2 µL/min/mg	
Cc1cc(-c2cc(-c3ncc(F)c(O)n3)nn2Cc2ccccc2F)no1		118 µL/min/mg	249 µL/min/mg	23%
Oc1nc(-c2cc(-c3ccccn3)n(Cc3ccccc3F)n2)ncc1F		9 µL/min/mg	39 µL/min/mg	35%
Oc1nc(-c2cc(-c3ccon3)n(Cc3sccc3F)n2)ncc1F	0.28 µM	11 µL/min/mg	13 µL/min/mg	
N#Cc1cc(-c2ncc(F)c(O)n2)nn1Cc1ccccc1F				73%
O=S(=O)(c1ccccc1)c1cnc(-c2cc(-c3ccon3)n(Cc3ccccc3F)n2)nc1O	0.35 µM	18 µL/min/mg	27 µL/min/mg	
CC(C)(O)c1cnc(-c2cc(-c3ccon3)n(Cc3ccccc3F)n2)nc1O		8 µL/min/mg	8 µL/min/mg	40%
O=c1[nH]c(-c2cc(-c3ccon3)n(CCC(F)(F)C(F)(F)F)n2)ncc1F	1.5 µM	6 µL/min/mg	4 µL/min/mg	
